Source: PubChem BioAssay (NCI)
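How tested: cells in 96-well plates exposed to compound for 48 hours at five concentrations. GI50: concentration for 50% inhibition of growth. TGI denotes the concentration required for complete inhibition of growth.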

Legend:
Test in all cases: NCI anticancer screen, dose series, 48 h
[1] = tested on: LOX IMVI melanoma
[2] = tested on: NCI-H460 lung
[3] = tested on: MDA-MB-231 breast
[4] = tested on: SW-620 colon
[5] = tested on: SK-MEL-5 melanoma
[6] = tested on: SF-295 CNS
[7] = tested on: CAKI-1 renal
[8] = tested on: M14 melanoma
[9] = tested on: IGROV1 ovarian
[10] = tested on: HL-60(TB) leukemia

Row | SMILES | GI50 [1] [µM] | TGI [1] [µM] | GI50 [2] [µM] | TGI [2] [µM] | GI50 [3] [µM] | TGI [3] [µM] | GI50 [4] [µM] | TGI [4] [µM] | GI50 [5] [µM] | TGI [5] [µM] | GI50 [6] [µM] | TGI [6] [µM] | GI50 [7] [µM] | TGI [7] [µM] | GI50 [8] [µM] | TGI [8] [µM] | GI50 [9] [µM] | TGI [9] [µM] | TGI [10] [µM] | GI50 [10] [µM]
1 | Cc1ccccc1NC(=O)NC(CC(N)=O)c1ccc2c(c1)nc(-c1cccc(Oc3ccc(C(C)(C)C)cc3)c1)n2CCCN1CCCCC1C (stereo not given) | 1.67 | 3.14 | 2 | 3.87 | 2.34 | 5.27 | 1.84 | 3.49 | 1.73 | 3.19 | 4.25 | 9.57 | 17.2 | 42.8 | 1.83 | 3.44 | 3.25 | 9.82 |  | 
2 | CC1SC(c2cccs2)N(NC(=O)C(O)c2ccccc2)C1=O (stereo not given) | > 100 | > 100 | > 100 | > 100 | > 100 | > 100 | > 100 | > 100 | > 100 | > 100 | > 100 | > 100 | > 100 | > 100 | > 100 | > 100 | > 100 | > 100 |  | 
3 | COC(=O)/C(C#N)=C1\N=NNN1CCCc1ccccc1 |  | > 100 |  | > 100 |  |  |  | > 100 |  | > 100 |  | > 100 |  | > 100 |  | > 100 |  | > 100 |  | 
4 | COc1ccc2c(CNCCCCO)cc3cc4c(cc3c2c1)OCO4 | 1.25 | 5.37 |  |  | 2.06 | 6.2 | 0.228 | 2.35 | 0.818 | 2.13 | 0.624 | 4.68 | 0.628 | 2.96 | 2.07 | 4.68 | 0.407 | 4.75 |  | 
5 | COc1ccccc1NC(=O)C1=C(C)NC(C)=C(C(=O)Nc2ccccc2OC)C1c1ccc(C(C)C)cc1 |  | > 100 |  | > 100 |  |  |  | > 100 |  | > 100 |  | > 100 |  | > 100 |  | > 100 |  | > 100 | > 1 | 
6 | O=[N+]([O-])c1ccc2[nH]cc(-c3c4ccccc4cc4[nH]c5ccc([N+](=O)[O-])cc5c34)c2c1 | 1.92 | 4.14 | 2.72 | 7.7 | 2.27 | 5.83 | 2.73 | 8.84 | 1.62 | 2.98 | 1.63 | 3.73 | 1.8 | 3.64 | 1.67 | 3.22 | 2.15 | 4.68 |  | 
7 | O=c1c2ccccc2nc(-c2ccc(Cl)cc2)n1O |  |  |  | > 100 |  | > 100 |  | > 100 |  | > 100 |  | 94.1 |  | > 100 |  | > 100 |  | 9.61 | 65 | 
8 | CCN(CCCl)CCNc1c2ccccc2nc2ccc(OC)cc12 |  | 2.14 |  | 2.2 |  |  |  | 2.04 |  | 2.6 |  | 4 |  | 4.23 |  | 2.45 |  | 2.86 | 3.91 | 
9 | CC(CN(CP(=O)([O-])[O-])CP(=O)([O-])[O-])N(CP(=O)([O-])[O-])CP(=O)([O-])[O-].N[C@@H]1CCCC[C@@H]1N.[Pt+2] (stereo not given) | > 100 | > 100 | > 100 | > 100 |  |  | > 100 | > 100 | > 100 | > 100 | > 100 | > 100 | > 100 | > 100 | > 100 | > 100 | > 100 | > 100 | > 100 | > 100
10 | C/C=C/C1(NS(=O)(=O)c2ccc(C)cc2)CCC(C(C)(C)C)CC1 (stereo not given) |  |  |  | 51.5 |  |  |  | 67.3 |  | 31.8 |  | 61.4 |  | 98.1 |  | 35.1 |  | 77.2 | 44.5 | 
11 | CCCNc1nc(-c2ccc(OC)cc2)nc2ccccc12 | 18.4 | 37.5 | 10.5 | 44 |  |  |  |  | 12.5 | 27.7 | 15.7 | 32.2 | 13.3 | 27.9 | 10.6 | 24.7 | 24 | > 100 |  | 
12 | O=C1c2cccnc2-c2nc(-c3ccc([N+](=O)[O-])cc3)cc3c2c1nc1ccccc13 | 2.28 | > 100 | 2.34 | 8.62 | 7.97 | > 100 | 3.21 | 15.6 | 0.825 | 2.45 | 4.47 | 15.4 | 13.8 | > 100 | 1.9 | 4.43 | 7.09 | 26 |  | 
13 | N#CC(C#N)=C1NC(=O)C(c2ccccc2)C(=O)N1 (stereo not given) |  | > 100 |  | > 100 |  |  |  | > 100 |  | > 100 |  | > 100 |  | > 100 |  | > 100 |  | > 100 | > 100 | 
14 | Cc1ccccc1NC(=O)c1[nH]c(=S)nc(N)c1-c1ccccc1C |  | > 100 |  | > 100 |  |  |  | > 100 |  | > 100 |  | > 100 |  | > 100 |  | > 100 |  | > 100 | > 100 | 
15 | COC(=O)C1Cc2c([nH]c3ccccc23)C=N1 (stereo not given) |  | > 100 |  | > 100 |  |  |  | > 100 |  | > 100 |  | > 100 |  | > 100 |  | > 100 |  | > 100 | > 100 | 
16 | CCOC(=O)C(=Cc1ccccc1Br)C(=O)OCC |  |  |  | > 100 |  | 36.9 |  |  |  | 3.85 |  | 8.88 |  | 6.83 |  | 2.48 |  | 4.62 | 4 | 
17 | Cc1cccc(C)c1NC(=O)C(=O)C1C(=O)N(c2ccccc2)N=C1N (stereo not given) |  | > 100 |  | > 100 |  |  |  | > 100 |  | > 100 |  | > 100 |  | > 100 |  | > 100 |  | > 100 | > 100 | 
18 | NS(=O)(=O)c1ccc(-n2nc(-c3ccc(Cl)cc3)cc2C2=CC(=O)C=CC2=O)cc1 |  |  | 24.3 | 57.4 | 13.7 | 32 | 19.8 | 48.3 | 18.2 | 43.5 | 25.1 | 63.2 | 25.2 | 48.5 | 23 | 42.8 | 39.6 | > 100 | > 100 | 34
